Measurements as given in patent US20230009626A1 (ICHNOS SCIENCES S.A., priority 2018, published 2023).
Where a name gives a salt, the structure may show the parent alone.

Target: HPK1 (MAP4K1) (Homo sapiens, UniProt Q92918)
Assay: FRET Assay for HPK1 (MAP4K1): one step binding assay, displacement of labeled tracer
Settings: for inhibition at 1 µM: 1 μM compound; for inhibition at 1 µM / inhibition at 10 µM: FRET ratio 665/620, percent of control; for IC50: dose response curve, nonlinear regression; for inhibition at 10 µM: 10 μM compound
Text: FRET Assay for HPK1 (MAP4K1):
This is a one step binding assay based on the binding and displacement of the labeled tracer, where compound addition is followed by addition of the anti-GST tagged europium (Eu) as the donor and Alexa Fluor-labeled tracer as the acceptor. Simultaneous binding of both the tracer and GST-antibody to the kinase domain of HPK1 results in a high degree of FRET (fluorescence resonance energy transfer) from the anti-GST tagged europium (Eu) fluorophore to the Alexa Fluor® 647 fluorophore on the kinase tracer and this signal is reduced in presence of the inhibitor that can be measured.
Test compounds or reference compounds such as Sunitinib (Sigma) were dissolved in dimethylsulfoxide (DMSO) to prepare 10.0 mM stock solutions and diluted to the desired concentration. The final concentration of DMSO in the reaction was 3% (v/v). The assay mixture was prepared by mixing 4 nM of the Eu-Anti-GST Antibody and 10 nM MAP4K-1 enzyme in the Kinase buffer containing 50mM HEPES (pH 7.5), 10 mM MgCl2, 1 mM EGTA, 0.01% Brij-35 with or without the desired concentration of the compound. The reaction was incubated on ice for 15 mins. The pre-incubation step was followed by addition of the 20 nM Kinase Tracer 222 into the reaction mixture. After shaking for 5 min the reaction was further incubated for 1 hour at room temperature and this was kept at 4° C. and read on ARTEMIS reader as per the kit instructions (Thermo). […] The activity was calculated as percent of control reaction. IC50 values were calculated from dose response curve by nonlinear regression analysis using GraphPad Prism software.
Percentage inhibition at concentrations of 1.0 μM and 10.0 μM are given in the table along with IC50 (nM) details for selected examples.

Chain of HPK1 (MAP4K1) (Q92918 whole entry): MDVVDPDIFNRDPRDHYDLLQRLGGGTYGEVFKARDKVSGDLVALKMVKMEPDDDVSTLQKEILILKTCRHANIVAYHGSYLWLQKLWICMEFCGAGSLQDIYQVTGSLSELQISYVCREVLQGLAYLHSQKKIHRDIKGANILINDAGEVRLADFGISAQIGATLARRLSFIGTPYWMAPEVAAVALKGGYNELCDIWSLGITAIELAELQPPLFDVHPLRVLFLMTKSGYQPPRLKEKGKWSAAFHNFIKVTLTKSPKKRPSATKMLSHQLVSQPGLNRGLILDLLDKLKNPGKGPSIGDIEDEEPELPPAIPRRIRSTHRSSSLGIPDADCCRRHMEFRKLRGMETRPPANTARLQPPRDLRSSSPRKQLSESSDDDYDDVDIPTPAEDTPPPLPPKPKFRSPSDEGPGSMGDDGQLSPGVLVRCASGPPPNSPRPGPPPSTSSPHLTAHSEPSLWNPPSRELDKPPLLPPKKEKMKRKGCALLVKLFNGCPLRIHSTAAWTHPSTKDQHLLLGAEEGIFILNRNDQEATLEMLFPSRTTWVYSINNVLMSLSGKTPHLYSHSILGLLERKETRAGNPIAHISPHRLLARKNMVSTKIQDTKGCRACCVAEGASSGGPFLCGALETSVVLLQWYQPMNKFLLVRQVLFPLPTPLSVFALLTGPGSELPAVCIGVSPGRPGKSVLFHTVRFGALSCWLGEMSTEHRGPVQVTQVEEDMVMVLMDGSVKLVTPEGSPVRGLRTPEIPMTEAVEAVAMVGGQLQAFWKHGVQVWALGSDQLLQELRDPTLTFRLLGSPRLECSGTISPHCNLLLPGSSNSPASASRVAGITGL

C/C(Nc1ccn(C(C)C#N)n1)=C1/C(=O)Nc2cnc(-c3cnccc3C)cc21 (stereo in doubt) [Example 116]
inhibition at 1 µM: 75.9% | IC50: < 50 nM

CN/C(=C1\C(=O)Nc2ccc(-c3c(F)cccc3OC)cc21)c1ccccc1 [Example 1, 5-(2-fluoro-6-methoxyphenyl)-3-((methylamino)(phenyl)methylene)indolin-2-one]
inhibition at 1 µM: 69.8% | inhibition at 10 µM: 84% | IC50: 100 to 500 nM

COc1cccc(F)c1-c1ccc2c(c1)/C(=C(\C)Nc1ccc(N3CCN(C)CC3)cc1)C(=O)N2 [Example 2, (Z)-5-(2-Fluoro-6-methoxyphenyl)-3-(1-((4-(4-methylpiperazin-1-yl)phenyl)amino)ethylidene)indolin-2-one]
inhibition at 1 µM: 88.6% | inhibition at 10 µM: 82.5% | IC50: < 50 nM

COc1cccc(F)c1-c1ccc2c(c1)/C(=C(\C)Nc1ccccc1)C(=O)N2 [Example 3, (Z)-5-(2-Fluoro-6-methoxyphenyl)-3-(1-(phenylamino)ethylidene)indolin-2-one]
inhibition at 1 µM: 62.5% | IC50: 100 to 500 nM

COc1cccc(F)c1-c1ccc2c(c1)/C(=C(\C)Nc1ccc(N3CCN(C4COC4)CC3)nc1)C(=O)N2 [Example 4, (Z)-5-(2-Fluoro-6-methoxyphenyl)-3-(1-((6-(4-(oxetan-3-yl)piperazin-1-yl)pyridin-3-yl)amino)ethylidene)indolin-2-one]
inhibition at 1 µM: 90.1% | inhibition at 10 µM: 91% | IC50: < 50 nM

C/C(Nc1ccc(N2CCN(C3COC3)CC2)nc1)=C1/C(=O)Nc2ccc(F)cc21 [Example 5, (Z)-5-Fluoro-3-(1-((6-(4-(oxetan-3-yl)piperazin-1-yl)pyridin-3-yl)amino)ethylidene)indolin-2-one]
inhibition at 1 µM: 76.1% | inhibition at 10 µM: 85.5% | IC50: 100 to 500 nM

C/C(Nc1ccc(N2CCN(C)CC2)cc1)=C1/C(=O)Nc2ccc(F)cc21 [Example 6, (Z)-5-Fluoro-3-(1-((4-(4-methylpiperazin-1-yl)phenyl)amino)ethylidene)indolin-2-one]
inhibition at 1 µM: 85.5% | inhibition at 10 µM: 87.3% | IC50: < 50 nM

COc1cccc(F)c1-c1ccc2c(c1)/C(=C(\C)Nc1ccc(N(C)C(=O)CN3CCN(C)CC3)cc1)C(=O)N2 [Example 7, (Z)-N-(4-((1-(5-(2-Fluoro-6-methoxyphenyl)-2-oxoindolin-3-ylidene)ethyl)amino)phenyl)-N-methyl-2-(4-methylpiperazin-1-yl)acetamide]
inhibition at 1 µM: 82.4% | inhibition at 10 µM: 87.1% | IC50: < 50 nM

COc1cccc(F)c1-c1ccc2c(c1)/C(=C(\C)Nc1ccc(N3CCNCC3)cc1)C(=O)N2 [Example 8, (Z)-5-(2-Fluoro-6-methoxyphenyl)-3-(1-((4-(piperazin-1-yl)phenyl)amino)ethylidene)indolin-2-one]
inhibition at 1 µM: 84.8% | inhibition at 10 µM: 83.8% | IC50: < 50 nM

CC/C(Nc1ccc(N2CCN(C)CC2)cc1)=C1/C(=O)Nc2ccc(-c3c(F)cccc3OC)cc21 [Example 9, (Z)-5-(2-Fluoro-6-methoxyphenyl)-3-(1-((4-(4-methylpiperazin-1-yl)phenyl)amino)propylidene)indolin-2-one]
inhibition at 1 µM: 84.9% | inhibition at 10 µM: 84.4% | IC50: < 50 nM

COc1cccc(F)c1-c1ccc2c(c1)/C(=C(\C)Nc1cnn(C)c1)C(=O)N2 [Example 10, (Z)-5-(2-Fluoro-6-methoxyphenyl)-3-(1-((1-methyl-1H-pyrazol-4-yl)amino)ethylidene)indolin-2-one]
inhibition at 1 µM: 82.6% | inhibition at 10 µM: 88.2% | IC50: < 50 nM

COc1cccc(F)c1-c1ccc2c(c1)/C(=C(\C)Nc1ccc(N3CCN(C)CC3)cc1C)C(=O)N2 [Example 11, (Z)-5-(2-Fluoro-6-methoxyphenyl)-3-(1-((2-methyl-4-(4-methylpiperazin-1-yl)phenyl)amino)ethylidene)indolin-2-one]
inhibition at 1 µM: 73.2% | inhibition at 10 µM: 84.4% | IC50: 100 to 500 nM

COc1cc2c(cc1N/C(C)=C1\C(=O)Nc3ccc(-c4c(F)cccc4OC)cc31)CNCC2 [Example 12, (Z)-5-(2-Fluoro-6-methoxyphenyl)-3-(1-((6-methoxy-1,2,3,4-tetrahydroisoquinolin-7-yl)amino)ethylidene)indolin-2-one. PTSA salt]
inhibition at 1 µM: 48% | inhibition at 10 µM: 55.8% | IC50: > 500 nM

COc1cccc(F)c1-c1ccc2c(c1)/C(=C(\C)Nc1ccc(N3CCOCC3)cc1)C(=O)N2 [Example 13, (Z)-5-(2-Fluoro-6-methoxyphenyl)-3-(1-((4-morpholinophenyl)amino)ethylidene)indolin-2-one]
inhibition at 1 µM: 73.3% | IC50: 50 to 100 nM

COc1cccc(F)c1-c1cc2c(cn1)NC(=O)/C2=C(/C)Nc1ccc(N2CCN(C)CC2)cc1 [Example 14, (Z)-5-(2-fluoro-6-methoxyphenyl)-3-(1-((4-(4-methylpiperazin-1-yl)phenyl)amino)ethylidene)-1H-pyrrolo[2,3-c]pyridin-2(3H)-one]
inhibition at 1 µM: 86.3% | inhibition at 10 µM: 88.3% | IC50: < 50 nM

COc1cccc(F)c1-c1ccc2c(c1)/C(=C(/Nc1cnn(C)c1)c1ccccc1)C(=O)N2 [Example 15, (Z)-5-(2-Fluoro-6-methoxyphenyl)-3-(((1-methyl-1H-pyrazol-4-yl)amino)(phenyl)methylene)indolin-2-one]
inhibition at 1 µM: 85.2% | inhibition at 10 µM: 87% | IC50: < 50 nM

COc1cccc(F)c1-c1cc2c(cn1)NC(=O)/C2=C(/C)Nc1cnn(C)c1 [Example 16, (Z)-5-(2-Fluoro-6-methoxyphenyl)-3-(1-((1-methyl-1H-pyrazol-4-yl)amino)ethylidene)-1H-pyrrolo[2,3-c]pyridin-2(3H)-one]
inhibition at 1 µM: 85.3% | inhibition at 10 µM: 88.9% | IC50: < 50 nM

CC/C(Nc1cnn(C)c1)=C1/C(=O)Nc2ccc(-c3c(F)cccc3OC)cc21 [Example 17, (Z)-5-(2-Fluoro-6-methoxyphenyl)-3-(1-((1-methyl-1H-pyrazol-4-yl)amino)propylidene)indolin-2-one]
inhibition at 1 µM: 85.7% | inhibition at 10 µM: 83.3% | IC50: < 50 nM

COc1cccc(F)c1-c1ccc2c(c1)/C(=C(\C)Nc1ccn(C)n1)C(=O)N2 [Example 18, (Z)-5-(2-Fluoro-6-methoxyphenyl)-3-(1-((1-methyl-1H-pyrazol-3-yl)amino)ethylidene)indolin-2-one]
inhibition at 1 µM: 89.8% | inhibition at 10 µM: 85.4% | IC50: < 50 nM

COc1cccc(F)c1-c1cc2c(cc1Cl)NC(=O)/C2=C(/C)Nc1cnn(C)c1 [Example 20]
inhibition at 1 µM: 85.2% | inhibition at 10 µM: 80.1% | IC50: < 50 nM

COc1cccc(F)c1-c1cc2c(cc1C)NC(=O)/C2=C(/C)Nc1cnn(C)c1 [Example 21, (Z)-5-(2-Fluoro-6-methoxyphenyl)-6-methyl-3-(1-((1-methyl-1H-pyrazol-4-yl)amino)ethylidene)indolin-2-one]
inhibition at 1 µM: 83.1% | inhibition at 10 µM: 80% | IC50: < 50 nM

CCOc1cccc(F)c1-c1cc2c(cn1)NC(=O)/C2=C(/C)Nc1cnn(CC)c1 [Example 22, (Z)-5-(2-Ethoxy-6-fluorophenyl)-3-(1-((1-ethyl-1H-pyrazol-4-yl)amino)ethylidene)-1H-pyrrolo[2,3-c]pyridin-2(3H)-one]
inhibition at 1 µM: 86.6% | inhibition at 10 µM: 90.5% | IC50: < 50 nM
